In patent US20250250263A1, “INHIBITING HISTONE DEACETYLASE 6 (HDAC6)” (Eikonizo Therapeutics, Inc., priority 2022, published 2025):

How the values were obtained:
Human HDAC6 = Human HDAC6 (Homo sapiens (Human), UniProt Q9UBN7); test: In vitro HDAC6 enzymatic activity (Caliper endpoint assay or fluorogenic Nanosyn assay); format: biochemical; conditions: ratio of HDAC8 IC50/HDAC6 IC50
Human HDAC8 = Human HDAC8 (Homo sapiens (Human), UniProt Q9BY41); test: In vitro HDAC8 enzymatic activity (Caliper endpoint assay); format: biochemical
Chain of Human HDAC8 (Q9BY41 whole entry): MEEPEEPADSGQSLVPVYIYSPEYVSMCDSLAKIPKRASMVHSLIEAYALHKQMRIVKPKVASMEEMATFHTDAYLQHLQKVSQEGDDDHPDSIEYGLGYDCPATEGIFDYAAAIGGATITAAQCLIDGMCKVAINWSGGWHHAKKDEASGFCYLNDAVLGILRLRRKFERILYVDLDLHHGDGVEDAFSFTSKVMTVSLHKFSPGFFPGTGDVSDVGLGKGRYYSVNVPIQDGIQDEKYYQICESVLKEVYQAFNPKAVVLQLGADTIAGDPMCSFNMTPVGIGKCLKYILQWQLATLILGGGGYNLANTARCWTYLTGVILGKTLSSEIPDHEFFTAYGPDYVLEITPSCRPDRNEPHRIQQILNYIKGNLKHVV

Chain of Human HDAC6 (Q9UBN7 whole entry): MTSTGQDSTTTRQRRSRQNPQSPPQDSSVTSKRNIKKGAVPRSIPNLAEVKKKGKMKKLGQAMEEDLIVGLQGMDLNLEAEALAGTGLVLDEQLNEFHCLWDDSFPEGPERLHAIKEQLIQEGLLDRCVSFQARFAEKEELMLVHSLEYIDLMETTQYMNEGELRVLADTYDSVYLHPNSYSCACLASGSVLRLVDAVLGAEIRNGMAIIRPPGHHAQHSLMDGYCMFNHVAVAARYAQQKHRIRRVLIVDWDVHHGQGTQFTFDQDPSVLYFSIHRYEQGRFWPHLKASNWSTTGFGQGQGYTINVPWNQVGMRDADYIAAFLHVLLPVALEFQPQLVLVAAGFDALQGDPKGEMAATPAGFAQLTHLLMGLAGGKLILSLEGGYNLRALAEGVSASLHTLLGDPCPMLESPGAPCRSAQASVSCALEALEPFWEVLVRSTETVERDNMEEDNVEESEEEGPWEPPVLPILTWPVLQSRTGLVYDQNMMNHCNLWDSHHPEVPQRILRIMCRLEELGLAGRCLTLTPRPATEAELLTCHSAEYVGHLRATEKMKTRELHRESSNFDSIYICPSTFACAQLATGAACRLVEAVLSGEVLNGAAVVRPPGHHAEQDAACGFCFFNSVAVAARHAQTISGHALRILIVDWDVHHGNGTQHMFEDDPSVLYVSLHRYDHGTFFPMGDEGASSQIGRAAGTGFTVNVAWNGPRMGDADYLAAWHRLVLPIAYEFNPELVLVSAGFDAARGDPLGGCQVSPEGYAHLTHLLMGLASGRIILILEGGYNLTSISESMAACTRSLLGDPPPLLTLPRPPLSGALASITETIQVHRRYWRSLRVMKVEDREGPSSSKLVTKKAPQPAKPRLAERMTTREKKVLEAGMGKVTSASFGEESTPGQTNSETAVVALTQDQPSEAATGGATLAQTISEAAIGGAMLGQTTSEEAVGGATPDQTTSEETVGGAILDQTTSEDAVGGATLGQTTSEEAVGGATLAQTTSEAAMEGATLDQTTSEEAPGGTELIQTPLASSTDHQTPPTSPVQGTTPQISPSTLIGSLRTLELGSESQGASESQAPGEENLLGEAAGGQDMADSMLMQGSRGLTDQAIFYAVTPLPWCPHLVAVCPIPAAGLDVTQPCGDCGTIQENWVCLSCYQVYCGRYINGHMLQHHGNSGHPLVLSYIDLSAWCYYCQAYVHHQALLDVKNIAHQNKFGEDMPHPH

**Q.** N#Cc1cc(OCc2ccc(-c3nnc(C(F)F)o3)cn2)ccc1F [Compound 30, 5-((5-(5-(difluoromethyl)-1,3,4-oxadiazol-2-yl)pyridin-2-yl)methoxy)-2-fluorobenzonitrile] was tested. Which “Selectivity (6 v 8) (fold)” value (Human HDAC6) did it give?
**A.** Its value is “IV (IV: >100-1000)”.

**Q.** For FC(F)c1nnc(-c2ccc(COc3ccc4cccnc4c3)nc2)o1 [Compound 34], which IC50 (Human HDAC8) is on record?
**A.** The IC50 was greater than 100 µM.

**Q.** What about the “Selectivity (6 v 8) (fold)” value (Human HDAC6) of the same compound?
**A.** The value was “V (V: >1000)”.

**Q.** Which results are given for FC(F)c1nnc(-c2ccc(COc3cccc4ncccc34)nc2)o1 [Compound 63]?
**A.** IC50 (Human HDAC8): > 100 µM; Selectivity (6 v 8) (fold) (Human HDAC6): V (V: >1000)
